Reference: patent US20140097078A1, “DISTILLATION DEVICE AND METHOD” (GE HEALTHCARE LIMITED, priority 2011, published 2014)
Where two headings read alike, the source gives them in different places. Values belong to the substance of their own block, whether it stands above or below them.

How the values were obtained:
[1] = Radiolysis / stability of [18F]FET-βAG-TOCA: percentage of parent compound over time; assay type: physicochemical; settings: for Percentage of parent compound at time: T = 0 / Percentage of parent compound at time: T = 120 m / Percentage of parent compound at time: T = 240 m: ~10 ml in 3-6% EtOH/PBS
Description: The use of higher levels of fluorine-18 (0.5-1 Curie) was also investigated. […] Although radiolysis occurred during isolation, once the product had been fully formulated (6% EtOH/PBS (10 mL)) it appeared to be stable up to 6 h. During this experiment, the EOS yield after aseptic filtration was 13%. The starting fluorine-18 was then reduced to see enough material could be isolated for a clinical dose, whilst at the same time reducing radiolysis.
Additional experiments attempted to add ascorbic acid to the existing HPLC eluent (0.5% w/v), add a sodium ascorbate solution to the HPLC fraction collection vial (5 mg/mL (5 mL)) and elute the tC18 cartridge with a sodium ascorbate/EtOH solution (5 mg/mL/1% EtOH). Unfortunately, due to addition of ascorbic acid to the HPLC eluent, the purification became inefficient, showing very little elution of the stable reagents. […] The isolated yield was also unaffected and gave EOS of 14%. To avoid this problem, ethanol was investigated as a replacement for the ascorbic acid. After some optimisation, a suitable solvent system was found (25% MeCN (0.1% HCl), 75% H2O (0.1% HCl)+0.8% w/v EtOH) which could be used to purify the material at the same time as reducing radiolysis (97% parent T=0 min (n=1)) (Entry 5, Table 2).

[2] = Entry 1, starting activity 1 Curie
[3] = Entry 2, starting activity 600 mCi
[4] = Entry 3, starting activity 500 mCi
[5] = Entry 4, starting activity 500 mCi
[6] = Entry 5, starting activity 500 mCi, EtOH-containing HPLC eluent

Substance: [^18F]FET-βAG-TOCA
time for which stable once fully formulated ([1]; 1 Curie run, formulated in 6% EtOH/PBS (10 mL)): ≥ 6 h
Percentage of parent compound at time: T = 0 [1, 2]: 60%
Percentage of parent compound at time: T = 120 m [1, 2]: 60%
Percentage of parent compound at time: T = 240 m [1, 2]: 60%
Percentage of parent compound at time: T = 0 [1, 3]: 91%
Percentage of parent compound at time: T = 120 m [1, 3]: 91%
Percentage of parent compound at time: T = 240 m [1, 3]: 91%
Percentage of parent compound at time: T = 0 [1, 4]: 96%
Percentage of parent compound at time: T = 120 m [1, 4]: 96%
Percentage of parent compound at time: T = 240 m [1, 4]: 96%
Percentage of parent compound at time: T = 0 [1, 5]: 97%
Percentage of parent compound at time: T = 120 m [1, 5]: 97%
Percentage of parent compound at time: T = 240 m [1, 5]: 97%
Percentage of parent compound at time: T = 0 [1, 6]: 97%
Percentage of parent compound at time: T = 240 m [1, 6]: 97%
parent at T=0 min ([1]; HPLC solvent 25% MeCN (0.1% HCl), 75% H2O (0.1% HCl)+0.8% w/v EtOH, n=1, Entry 5, Table 2): 97%
parent at T=0 min ([1]; ascorbic acid in HPLC eluent (0.5% w/v), sodium ascorbate in collection vial and tC18 eluent): 97%
intact parent ([1]; starting with 0.5 Curies of fluorine-18): 91%
parent at T=0 ([1]; starting with 1 Curie of fluorine-18, radiolysis during HPLC purification and tC18 formulation): 62%

time for which stable (in the presence of BPDS): ≤ 20 min
time for which stable (in the presence of CuSO4): > 240 min
time for which stable (in the presence of Na-ascorbate): ≤ 20 min
Substance: βAG-TOCA
